Patent US20090326037A1 (priority 2005, published 2009)
Values joined by “and” are separate entries in the source; they are usually repeats but may differ in a detail not shown here. Identical values can stand only once.

Tested on: influenza A/Singapore/1/57 virus
Experiment: microbe, parasite or virus in culture
Format: cell-based

## CC(=O)N[C@H]1[C@H]([C@H](O)[C@H](O)CO)OC(C(=O)O)=C[C@@H]1N=C(N)N [Zanamivir]
Zanamivir 0.3 μg alone (A or B 0 μg/ml), two values: A series, B series, added 2 hours after infection
  Percent of inhibition of OD 490: 27% and 15%
Zanamivir 1 μg alone (A or B 0 μg/ml), two values: A series, B series, added 2 hours after infection
  Percent of inhibition of OD 490: 29% and 15%
Zanamivir 3.3 μg alone (A or B 0 μg/ml), two values: A series, B series, added 2 hours after infection
  Percent of inhibition of OD 490: 36% and 20%
Zanamivir 10 μg alone (A or B 0 μg/ml), two values: A series, B series, added 2 hours after infection
  Percent of inhibition of OD 490: 43% and 22%
Zanamivir 33 μg alone (A or B 0 μg/ml), two values: A series, B series, added 2 hours after infection
  Percent of inhibition of OD 490: 49% and 28%
Ten times greater amount (than 3.3 mg) of zanamivir or oseltamivir without the addition of arbidol
  suppression of reproduction: 50%

## CC(N)C12CC3CC(CC(C3)C1)C2 (centres unmarked) [Remantadin]
Remantadin 5 μg/ml alone (A or D 0 μg/ml), two values: A series, D series, added 30 min prior to infection
  Percent of inhibition of OD 490: 56% and 41%
Remantadin 10 μg/ml alone (A or D 0 μg/ml), two values: A series, D series, added 30 min prior to infection
  Percent of inhibition of OD 490: 59% and 40%

## 1-methyl-2-(4-oxyethyl-phenylsulfomethyl)-3-carbethoxy-4-dimethylaminomethyl-5-oxy-6-bromindol
A or C 0.3 μg/ml + Oseltamivir 0.4 μg, added 2 hours after infection
  Percent of inhibition of OD 490: 15%
A or C 0.3 μg/ml + Oseltamivir 1.2 μg, added 2 hours after infection
  Percent of inhibition of OD 490: 16%
A or C 0.3 μg/ml + Oseltamivir 4.1 μg, added 2 hours after infection
  Percent of inhibition of OD 490: 18%
A or C 0.3 μg/ml + Oseltamivir 12.3 μg, added 2 hours after infection
  Percent of inhibition of OD 490: 35%
A or C 0.3 μg/ml + Oseltamivir 41 μg, added 2 hours after infection
  Percent of inhibition of OD 490: 40%
A or C 0.3 μg/ml alone (Oseltamivir 0), added 2 hours after infection
  Percent of inhibition of OD 490: no
A or C 1 μg/ml + Oseltamivir 0.4 μg, added 2 hours after infection
  Percent of inhibition of OD 490: 30%
A or C 1 μg/ml + Oseltamivir 1.2 μg, added 2 hours after infection
  Percent of inhibition of OD 490: 31%
A or C 1 μg/ml + Oseltamivir 4.1 μg, added 2 hours after infection
  Percent of inhibition of OD 490: 41%
A or C 1 μg/ml + Oseltamivir 12.3 μg, added 2 hours after infection
  Percent of inhibition of OD 490: 88%
A or C 1 μg/ml + Oseltamivir 41 μg, added 2 hours after infection
  Percent of inhibition of OD 490: 90%
A or C 1 μg/ml alone (Oseltamivir 0), added 2 hours after infection
  Percent of inhibition of OD 490: no
A or C 3 μg/ml + Oseltamivir 0.4 μg, added 2 hours after infection
  Percent of inhibition of OD 490: 35%
A or C 3 μg/ml + Oseltamivir 1.2 μg, added 2 hours after infection
  Percent of inhibition of OD 490: 37%
A or C 3 μg/ml + Oseltamivir 4.1 μg, added 2 hours after infection
  Percent of inhibition of OD 490: 60%
A or C 3 μg/ml + Oseltamivir 12.3 μg, added 2 hours after infection
  Percent of inhibition of OD 490: 91%
A or C 3 μg/ml + Oseltamivir 41 μg, added 2 hours after infection
  Percent of inhibition of OD 490: 100, 100%
A or C 3 μg/ml alone (Oseltamivir 0), added 2 hours after infection
  Percent of inhibition of OD 490: no
A or C 5 μg/ml + Oseltamivir 0.4 μg, added 2 hours after infection
  Percent of inhibition of OD 490: 50%
A or C 5 μg/ml + Oseltamivir 1.2 μg, added 2 hours after infection
  Percent of inhibition of OD 490: 40%
A or C 5 μg/ml + Oseltamivir 4.1 μg, added 2 hours after infection
  Percent of inhibition of OD 490: 96%
A or C 5 μg/ml + Oseltamivir 12.3 μg, added 2 hours after infection
  Percent of inhibition of OD 490: 96%
A or C 5 μg/ml + Oseltamivir 41 μg, added 2 hours after infection
  Percent of inhibition of OD 490: 100, 100%
A or C 5 μg/ml alone (Oseltamivir 0), added 2 hours after infection
  Percent of inhibition of OD 490: no
A or C 10 μg/ml + Oseltamivir 0.4 μg, added 2 hours after infection
  Percent of inhibition of OD 490: 46%
A or C 10 μg/ml + Oseltamivir 1.2 μg, added 2 hours after infection
  Percent of inhibition of OD 490: 65%
A or C 10 μg/ml + Oseltamivir 4.1 μg, added 2 hours after infection
  Percent of inhibition of OD 490: 95%
A or C 10 μg/ml + Oseltamivir 12.3 μg, added 2 hours after infection
  Percent of inhibition of OD 490: 95%
A or C 10 μg/ml + Oseltamivir 41 μg, added 2 hours after infection
  Percent of inhibition of OD 490: 98%
A or C 10 μg/ml alone (Oseltamivir 0), added 2 hours after infection
  Percent of inhibition of OD 490: 10%

## 1-methyl-2-(n-methyl-phenylsulfomethyl)-3-carbethoxy-4-dimethylaminomethyl-5-oxy-6-bromindol
A or D 1 μg/ml + Amantadin 0.3 μg/ml, added 30 min prior to infection
  Percent of inhibition of OD 490: 17%
A or D 1 μg/ml + Amantadin 1 μg/ml, added 30 min prior to infection
  Percent of inhibition of OD 490: 18%
A or D 1 μg/ml + Amantadin 5 μg/ml, added 30 min prior to infection
  Percent of inhibition of OD 490: 29%
A or D 1 μg/ml + Amantadin 10 μg/ml, added 30 min prior to infection
  Percent of inhibition of OD 490: 45%
A or D 1 μg/ml + Remantadin 0.3 μg/ml, added 30 min prior to infection
  Percent of inhibition of OD 490: 18%
A or D 1 μg/ml + Remantadin 1 μg/ml, added 30 min prior to infection
  Percent of inhibition of OD 490: 20%
A or D 1 μg/ml + Remantadin 5 μg/ml, added 30 min prior to infection
  Percent of inhibition of OD 490: 36%
A or D 1 μg/ml + Remantadin 10 μg/ml, added 30 min prior to infection
  Percent of inhibition of OD 490: 42%
A or D 1 μg/ml alone (Amantadin 0), added 30 min prior to infection
  Percent of inhibition of OD 490: 15%
A or D 1 μg/ml alone (Remantadin 0), added 30 min prior to infection
  Percent of inhibition of OD 490: 12%
A or D 5 μg/ml + Amantadin 0.3 μg/ml, added 30 min prior to infection
  Percent of inhibition of OD 490: 38%
A or D 5 μg/ml + Amantadin 1 μg/ml, added 30 min prior to infection
  Percent of inhibition of OD 490: 41%
A or D 5 μg/ml + Amantadin 5 μg/ml, added 30 min prior to infection
  Percent of inhibition of OD 490: 53%
A or D 5 μg/ml + Amantadin 10 μg/ml, added 30 min prior to infection
  Percent of inhibition of OD 490: 70%
A or D 5 μg/ml + Remantadin 0.3 μg/ml, added 30 min prior to infection
  Percent of inhibition of OD 490: 48%
A or D 5 μg/ml + Remantadin 1 μg/ml, added 30 min prior to infection
  Percent of inhibition of OD 490: 44%
A or D 5 μg/ml + Remantadin 5 μg/ml, added 30 min prior to infection
  Percent of inhibition of OD 490: 50%
A or D 5 μg/ml + Remantadin 10 μg/ml, added 30 min prior to infection
  Percent of inhibition of OD 490: 73%
A or D 5 μg/ml alone (Amantadin 0), added 30 min prior to infection
  Percent of inhibition of OD 490: 24%
A or D 5 μg/ml alone (Remantadin 0), added 30 min prior to infection
  Percent of inhibition of OD 490: 20%
A or D 10 μg/ml + Amantadin 0.3 μg/ml, added 30 min prior to infection
  Percent of inhibition of OD 490: 57%
A or D 10 μg/ml + Amantadin 1 μg/ml, added 30 min prior to infection
  Percent of inhibition of OD 490: 70%
A or D 10 μg/ml + Amantadin 5 μg/ml, added 30 min prior to infection
  Percent of inhibition of OD 490: 75%
A or D 10 μg/ml + Amantadin 10 μg/ml, added 30 min prior to infection
  Percent of inhibition of OD 490: 80%
A or D 10 μg/ml + Remantadin 0.3 μg/ml, added 30 min prior to infection
  Percent of inhibition of OD 490: 69%
A or D 10 μg/ml + Remantadin 1 μg/ml, added 30 min prior to infection
  Percent of inhibition of OD 490: 69%
A or D 10 μg/ml + Remantadin 5 μg/ml, added 30 min prior to infection
  Percent of inhibition of OD 490: 70%
A or D 10 μg/ml + Remantadin 10 μg/ml, added 30 min prior to infection
  Percent of inhibition of OD 490: 75%
A or D 10 μg/ml alone (Amantadin 0), added 30 min prior to infection
  Percent of inhibition of OD 490: 40%
A or D 10 μg/ml alone (Remantadin 0), added 30 min prior to infection
  Percent of inhibition of OD 490: 54%

## 1-methyl-2-(4-methylphenylsulfomethyl-3-carbethoxy-4-dimethylaminomethyl-5-oxy-6-bromindol
A or B 0.3 μg/ml + Zanamivir 0.3 μg, added 2 hours after infection
  Percent of inhibition of OD 490: 10%
A or B 0.3 μg/ml + Zanamivir 1 μg, added 2 hours after infection
  Percent of inhibition of OD 490: 15%
A or B 0.3 μg/ml + Zanamivir 3.3 μg, added 2 hours after infection
  Percent of inhibition of OD 490: 21%
A or B 0.3 μg/ml + Zanamivir 10 μg, added 2 hours after infection
  Percent of inhibition of OD 490: 30%
A or B 0.3 μg/ml + Zanamivir 33 μg, added 2 hours after infection
  Percent of inhibition of OD 490: 40%
A or B 0.3 μg/ml alone (Zanamivir 0), added 2 hours after infection
  Percent of inhibition of OD 490: no
A or B 1 μg/ml + Zanamivir 0.3 μg, added 2 hours after infection
  Percent of inhibition of OD 490: 21%
A or B 1 μg/ml + Zanamivir 1 μg, added 2 hours after infection
  Percent of inhibition of OD 490: 26%
A or B 1 μg/ml + Zanamivir 3.3 μg, added 2 hours after infection
  Percent of inhibition of OD 490: 30%
A or B 1 μg/ml + Zanamivir 10 μg, added 2 hours after infection
  Percent of inhibition of OD 490: 85%
A or B 1 μg/ml + Zanamivir 33 μg, added 2 hours after infection
  Percent of inhibition of OD 490: 83%
A or B 1 μg/ml alone (Zanamivir 0), added 2 hours after infection
  Percent of inhibition of OD 490: no
A or B 3 μg/ml + Zanamivir 0.3 μg, added 2 hours after infection
  Percent of inhibition of OD 490: 40%
A or B 3 μg/ml + Zanamivir 1 μg, added 2 hours after infection
  Percent of inhibition of OD 490: 45%
A or B 3 μg/ml + Zanamivir 3.3 μg, added 2 hours after infection
  Percent of inhibition of OD 490: 80%
A or B 3 μg/ml + Zanamivir 10 μg, added 2 hours after infection
  Percent of inhibition of OD 490: 90%
A or B 3 μg/ml + Zanamivir 33 μg, added 2 hours after infection
  Percent of inhibition of OD 490: 87%
A or B 3 μg/ml alone (Zanamivir 0), added 2 hours after infection
  Percent of inhibition of OD 490: no
A or B 5 μg/ml + Zanamivir 0.3 μg, added 2 hours after infection
  Percent of inhibition of OD 490: 52%
A or B 5 μg/ml + Zanamivir 1 μg, added 2 hours after infection
  Percent of inhibition of OD 490: 80%
A or B 5 μg/ml + Zanamivir 3.3 μg, added 2 hours after infection
  Percent of inhibition of OD 490: 75%
A or B 5 μg/ml + Zanamivir 10 μg, added 2 hours after infection
  Percent of inhibition of OD 490: 96%
A or B 5 μg/ml + Zanamivir 33 μg, added 2 hours after infection
  Percent of inhibition of OD 490: 95%
A or B 5 μg/ml alone (Zanamivir 0), added 2 hours after infection
  Percent of inhibition of OD 490: no
A or B 10 μg/ml + Zanamivir 0.3 μg, added 2 hours after infection
  Percent of inhibition of OD 490: 50%
A or B 10 μg/ml + Zanamivir 1 μg, added 2 hours after infection
  Percent of inhibition of OD 490: 75%
A or B 10 μg/ml + Zanamivir 3.3 μg, added 2 hours after infection
  Percent of inhibition of OD 490: 90%
A or B 10 μg/ml + Zanamivir 10 μg, added 2 hours after infection
  Percent of inhibition of OD 490: 100, 100%
A or B 10 μg/ml + Zanamivir 33 μg, added 2 hours after infection
  Percent of inhibition of OD 490: 100, 100%
A or B 10 μg/ml alone (Zanamivir 0), added 2 hours after infection
  Percent of inhibition of OD 490: 10%
